# Experimental data from patent publication US6486326B2, “iso-CBI and iso-CI analogs of CC-1065 duocarmycins” (The Scripps Research Institute, priority 1997, dated 2002).
# Values joined by “and” are separate entries in the source; they are usually repeats but may differ in a detail not shown here. Identical values can stand only once.
# Experiments:
# calf thymus DNA = test: Calf thymus DNA alkylation, quantitation of adenine N3 adduct; type: biochemical; details: for conversion to thermally released adenine adduct 66: 4° C., 72 h, ca. 150 bp, then 100° C., 30 min, pH 7.0, four runs
# Method: This was addressed through a study of the alkylation of calf thymus DNA. Optimized conditions for the alkylation were established for (−)-44 on an analytical scale (100 μg of agent). For this purpose, the long-wavelength UV absorption of the agent and the adduct provided a useful quantitative measure of the adenine adduct, unreacted starting material and any side products (solvolysis or rearrangement), Table 3. Analytical HPLC analysis was used to confirm the identity of the products through correlation of retention times and UV spectral data with authentic materials. The preparative DNA alkylation reaction and subsequent isolation of (+)-66 was carried out under conditions determined to provide complete consumption of the agent in the presence of a large excess of DNA Thus, extraction (EtOAc) of the aqueous buffer solution containing calf thymus DNA following alkylation (4° C., 72 h, 150 bp) afforded no recovered (−)-44, and only a small amount (<5%) of the rearranged product 65. Conducting the reaction at 4° C. in the presence of a large excess of DNA precluded competitive solvolysis. Thermal treatment of the alkylated DNA in aqueous 10 mM sodium phosphate buffer (100° C., 30 min, pH 7.0) followed by EtOAc extraction provided 66 in 90-95% conversion, ≧95% purity (by HPLC). Repeating this thermal treatment provided little or no additional adduct. No trace of a competing guanine adduct could be detected. This high conversion to a single adduct established that 44 participates exclusively in the adenine N3 alkylation reaction under the conditions examined.
# [1] = system: w794 DNA (SV40 DNA segment, 144 bp); test: DNA alkylation selectivity and efficiency, thermally-induced strand cleavage of w794 DNA; type: biochemical
# Method: FIG. 5 illustrates thermally-induced strand cleavage of w794 DNA (SV40 DNA segment, 144 bp, nucleotide nos. 138-5238); DNA-agent incubation for 24 hours at 25° C., removal of unbound agent and 30 minutes of thermolysis (100° C.), followed by denaturing 8% PAGE and autoradiography, lane 1, control DNA; lanes 2-5, Sanger G, C, A, and T sequencing reactions; lanes 6-7 (−)-iso-CBI-TMI (1×10^−3 and 1×10^−4 M); lanes 8-9, (+)-CBI-TMI (1×10^−5 and 1×10^−4 M); lanes 10-11, (+)-duocarmycin SA (1×10^−5 and 1×10^−6).
# FIG. 7 illustrates thermally-induced strand cleavage of w794 DNA (SV40 DNA segment, 144 bp, nucleotide nos. 138-5238); DNA-agent incubation for 24 h at 25° C., removal of unbound agent and 30 min of thermolysis (100° C.), followed by denaturing 8% PAGE and autoradiography; lane 1, control DNA; lanes 2-5, Sanger G, C, A, and T sequencing reactions; lanes 6-8 (+)-duocarmycin SA (1×10^−4 to 1×10^−6 M); lanes9-11, seco-iso-CI-TMI (1×10^−3 to 1×10^−5 M).
# DNA Alkylation Selectivity and Efficiency: The DNA alkylation properties of the agents were examined within w794 and w836 duplex DNA for which comparative results are available for related agents. (Boger, D. L., et al., J. Am. Chem. Soc. 1994, 116, 11335; Boger, D. L., et al., J. Am. Chem. Soc. 1994, 116, 6461; and Boger, D. L., et al., J. Am. Chem. Soc. 1995, 117, 11647) The alkylation site identification and the assessment of the relative selectivity among the available sites were obtained by thermally-induced strand cleavage of the singly 5′ end-labeled duplex DNA after exposure to the agents. Following treatment of the end-labeled duplex DNA with a range of agent concentrations and temperatures in the dark, the unbound agent was removed by EtOH precipitation of the DNA Redissolution of the DNA in aqueous buffer, thermolysis (100° C., 30 min) to induce strand cleavage at the sites of DNA alkylation, denaturing high-resolution polyacrylamide gel electrophoresis (PAGE) adjacent to Sanger dideoxynucleotide sequencing standards, and autoradiography led to identification of the DNA cleavage and alkylation sites. The full details of this procedure have been disclosed elsewhere. (Boger, D. L., et al., Tetrahedron 1991, 47, 2661.)
# DNA Alkylation Studies: Selectivity and Efficiency: Eppendorf tubes containing singly ^32p 5′-end-labeled double-stranded DNA (9 μL) (Boger, D. L., et al., Tetrahedron 1991, 47, 2661.) in TE buffer (10 mM Tris, 1 mM EDTA, pH 7.5) were treated with the agents in DMSO (1 μL, at the specified concentrations). The solutions were mixed by vortexing and brief centrifugation and subsequently incubated at 4° C., 25° C. or 37° C. for 24-72 h. […]
structure (smiles),measurement,setting,value
"COc1cc2cc(C(=O)N3CC4CC45C(=O)c4ccccc4C=C35)[nH]c2c(OC)c1OC (single isomer, unassigned; (-)) [(−)-iso-CBI-TMI, 2-[(5,6,7-Trimethoxyindol-2-yl)carbonyl]-1,2,9,9a-tetrahydrocyclopropa[c]benzo[f]indol-8-one]",conversion to thermally released adenine adduct 66,calf thymus DNA,95% and 90-95%
same,conversion to thermally released adenine adduct 66,calf thymus DNA; listed as (−)-44,90-95%
same,consumption of the agent accounted for by adenine N3 addition,calf thymus DNA; in the presence of duplex DNA,90-100%
same,DNA alkylation sequence selectivity compared with (+)-duocarmycin SA,[1],same sequence selectivity
same,"DNA alkylation efficiency, less efficient than (+)-CBI-TMI and (+)-duocarmycin SA","[1]; 24 h, 25° C.",50-100 ×
